Data: patent publication US20240210412A1, “SULFONYL-TRIAZOLE COMPOUNDS USEFUL AS LIGANDS AND INHIBITORS OF PROSTAGLANDIN REDUCTASE 2” (University of Virginia Patent Foundation, priority 2021, published 2024)

Columns and labels:
Experiment in all cases: SILAC LC-MS ABPP
Type in all cases: cell-based
Details in all cases: 25 μM 2 h, live DM93 cells
[1] = target: T1, P61289 (Homo sapiens, UniProt P61289)
T1 construct: endogenous in cells; host or cells: DM93 cells (SILAC)
How it was run: (§1)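 First, heavy-labelled DM93 cells were exposed to SuTEx ligand (25 μM) and light cells to DMSO, 2 h at 37 °C. Second, HHS-475 (100 μM) was added for 2 h. Third, soluble lysates were clicked to desthiobiotin-azide, pooled 1:1, trypsin-digested, avidin-enriched and analysed by LC-MS/MS.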

[2] = target: T2, P68104 (Homo sapiens, UniProt P68104)
T2 construct: performing SuTEx compound screening directly in cells; endogenous in cells; host or cells: DM93 cells (SILAC)
How it was run: as §1

[3] = target: T3, Q15293 (Homo sapiens, UniProt Q15293)
T3 construct: performing SuTEx compound screening directly in cells; endogenous in cells; host or cells: DM93 cells (SILAC), soluble fraction
How it was run: as §1

[4] = target: T4, Q8WVJ2 (Homo sapiens, UniProt Q8WVJ2)
T4 construct: endogenous in cells; host or cells: DM93 cells (SILAC), live-cell treatment
How it was run: as §1

[5] = target: T5, P07814 (Homo sapiens, UniProt P07814)
T5 construct: endogenous in cells; host or cells: DM93 cells (SILAC)
How it was run: as §1

[6] = target: T6, P56945 (Homo sapiens, UniProt P56945)
T6 construct: Probe-modified proteins from the soluble fraction were conjugated to a desthiobiotin-azide tag; endogenous in cells; host or cells: DM93 cells (SILAC)
How it was run: as §1

[7] = target: T7, Q9UFN0 (Homo sapiens, UniProt Q9UFN0)
T7 construct: endogenous in cells; host or cells: DM93 cells (SILAC)
How it was run: as §1

[8] = target: T8, Q14694 (Homo sapiens, UniProt Q14694)
T8 construct: performing SuTEx compound screening directly in cells; endogenous in cells; host or cells: DM93 cells (SILAC), soluble fraction
How it was run: as §1

[9] = target: T9, Q92889 (Homo sapiens, UniProt Q92889)
T9 construct: endogenous in cells; host or cells: DM93 cells (SILAC), live-cell treatment
How it was run: as §1

[10] = target: T10, Q9UQ35 (Homo sapiens, UniProt Q9UQ35)
T10 construct: endogenous in cells; host or cells: DM93 cells (SILAC)
How it was run: as §1

[11] = target: T11, O43823 (Homo sapiens, UniProt O43823)
T11 construct: endogenous in cells; host or cells: DM93
How it was run: as §1

[12] = target: T12, P12268 (Homo sapiens, UniProt P12268)
T12 construct: endogenous in cells; host or cells: DM93 cells (SILAC)
How it was run: as §1

[13] = target: T13, P15559 (Homo sapiens, UniProt P15559)
T13 construct: endogenous in cells; host or cells: DM93 cells (SILAC)
How it was run: as §1

[14] = target: T14, P62979 (Homo sapiens, UniProt P62979)
T14 construct: performing SuTEx compound screening directly in cells; endogenous in cells; host or cells: DM93 cells (SILAC)
How it was run: as §1

[15] = target: T15, Q14980 (Homo sapiens, UniProt Q14980)
T15 construct: performing SuTEx compound screening directly in cells; endogenous in cells; host or cells: DM93 cells (SILAC), soluble fraction
How it was run: as §1

[16] = target: T16, Q15154 (Homo sapiens, UniProt Q15154)
T16 construct: performing SuTEx compound screening directly in cells; endogenous in cells; host or cells: DM93 cells (SILAC), soluble fraction
How it was run: as §1

[17] = target: T17, P35269 (Homo sapiens, UniProt P35269)
T17 construct: Probe-modified proteins from the soluble fraction were conjugated to a desthiobiotin-azide tag; endogenous in cells; host or cells: DM93 (SILAC)
How it was run: as §1

[18] = target: T18, P82650 (Homo sapiens, UniProt P82650)
T18 construct: performing SuTEx compound screening directly in cells; endogenous in cells; host or cells: DM93 cells (SILAC)
How it was run: as §1

T5 sequence (P07814 whole entry): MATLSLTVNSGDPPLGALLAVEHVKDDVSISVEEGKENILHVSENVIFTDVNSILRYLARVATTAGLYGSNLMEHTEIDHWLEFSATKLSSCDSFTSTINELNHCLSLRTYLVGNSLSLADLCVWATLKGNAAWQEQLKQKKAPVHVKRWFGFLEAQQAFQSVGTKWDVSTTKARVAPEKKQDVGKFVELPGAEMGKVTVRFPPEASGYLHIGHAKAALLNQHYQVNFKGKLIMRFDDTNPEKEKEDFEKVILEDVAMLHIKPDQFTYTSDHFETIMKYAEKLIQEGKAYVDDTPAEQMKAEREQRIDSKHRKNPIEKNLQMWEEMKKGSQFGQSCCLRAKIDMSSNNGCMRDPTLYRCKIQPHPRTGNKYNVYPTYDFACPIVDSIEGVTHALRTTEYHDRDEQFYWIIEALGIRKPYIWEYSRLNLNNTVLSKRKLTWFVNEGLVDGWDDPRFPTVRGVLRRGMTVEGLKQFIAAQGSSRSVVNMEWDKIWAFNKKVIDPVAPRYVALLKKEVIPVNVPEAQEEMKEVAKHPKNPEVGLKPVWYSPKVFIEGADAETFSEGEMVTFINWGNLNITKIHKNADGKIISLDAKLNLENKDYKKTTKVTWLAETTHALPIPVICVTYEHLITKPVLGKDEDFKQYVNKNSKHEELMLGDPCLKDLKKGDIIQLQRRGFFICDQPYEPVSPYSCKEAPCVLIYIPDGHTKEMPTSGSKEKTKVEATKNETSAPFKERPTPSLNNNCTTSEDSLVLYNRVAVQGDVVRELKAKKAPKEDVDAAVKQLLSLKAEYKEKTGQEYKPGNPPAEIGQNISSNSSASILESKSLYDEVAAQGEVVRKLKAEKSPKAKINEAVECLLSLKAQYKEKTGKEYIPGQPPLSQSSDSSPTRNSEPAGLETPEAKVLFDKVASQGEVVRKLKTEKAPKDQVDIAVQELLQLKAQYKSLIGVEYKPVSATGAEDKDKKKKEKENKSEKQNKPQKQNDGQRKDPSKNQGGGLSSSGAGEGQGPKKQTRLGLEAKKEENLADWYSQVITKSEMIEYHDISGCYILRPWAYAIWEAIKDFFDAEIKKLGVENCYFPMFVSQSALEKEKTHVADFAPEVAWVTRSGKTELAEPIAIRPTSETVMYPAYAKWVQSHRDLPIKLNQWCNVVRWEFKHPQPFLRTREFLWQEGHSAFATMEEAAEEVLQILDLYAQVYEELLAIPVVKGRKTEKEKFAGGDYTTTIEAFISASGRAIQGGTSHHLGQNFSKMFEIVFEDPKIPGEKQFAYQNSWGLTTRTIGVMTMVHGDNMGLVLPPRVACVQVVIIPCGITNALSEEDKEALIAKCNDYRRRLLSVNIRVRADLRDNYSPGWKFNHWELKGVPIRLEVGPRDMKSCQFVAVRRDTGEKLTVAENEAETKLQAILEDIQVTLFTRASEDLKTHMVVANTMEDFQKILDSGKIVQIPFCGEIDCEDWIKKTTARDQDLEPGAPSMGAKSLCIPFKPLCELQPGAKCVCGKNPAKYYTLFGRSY
T12 sequence (P12268 2-514 limits assumed): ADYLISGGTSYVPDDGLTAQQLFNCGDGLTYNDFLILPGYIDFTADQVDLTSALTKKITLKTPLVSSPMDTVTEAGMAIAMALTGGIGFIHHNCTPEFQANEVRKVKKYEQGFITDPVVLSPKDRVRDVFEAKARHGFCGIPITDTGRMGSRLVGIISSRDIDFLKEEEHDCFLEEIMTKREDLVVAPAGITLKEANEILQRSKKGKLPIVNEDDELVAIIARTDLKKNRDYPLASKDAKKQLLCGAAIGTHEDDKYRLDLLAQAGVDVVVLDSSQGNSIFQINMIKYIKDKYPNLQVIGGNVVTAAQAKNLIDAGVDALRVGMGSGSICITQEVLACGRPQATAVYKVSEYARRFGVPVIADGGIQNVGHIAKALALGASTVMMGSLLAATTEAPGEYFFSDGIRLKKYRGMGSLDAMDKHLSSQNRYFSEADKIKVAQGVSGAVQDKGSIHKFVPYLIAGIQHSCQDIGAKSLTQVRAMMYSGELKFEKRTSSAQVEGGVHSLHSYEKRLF
T13 sequence (P15559 whole entry): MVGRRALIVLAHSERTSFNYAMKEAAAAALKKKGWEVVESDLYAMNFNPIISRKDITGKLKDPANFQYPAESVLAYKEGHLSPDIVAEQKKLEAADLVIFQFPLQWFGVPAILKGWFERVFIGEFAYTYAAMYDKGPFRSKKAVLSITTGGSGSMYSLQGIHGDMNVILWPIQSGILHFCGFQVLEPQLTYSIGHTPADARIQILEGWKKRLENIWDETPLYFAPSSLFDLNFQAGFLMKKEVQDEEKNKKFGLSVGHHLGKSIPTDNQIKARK
T6 sequence (P56945 whole entry): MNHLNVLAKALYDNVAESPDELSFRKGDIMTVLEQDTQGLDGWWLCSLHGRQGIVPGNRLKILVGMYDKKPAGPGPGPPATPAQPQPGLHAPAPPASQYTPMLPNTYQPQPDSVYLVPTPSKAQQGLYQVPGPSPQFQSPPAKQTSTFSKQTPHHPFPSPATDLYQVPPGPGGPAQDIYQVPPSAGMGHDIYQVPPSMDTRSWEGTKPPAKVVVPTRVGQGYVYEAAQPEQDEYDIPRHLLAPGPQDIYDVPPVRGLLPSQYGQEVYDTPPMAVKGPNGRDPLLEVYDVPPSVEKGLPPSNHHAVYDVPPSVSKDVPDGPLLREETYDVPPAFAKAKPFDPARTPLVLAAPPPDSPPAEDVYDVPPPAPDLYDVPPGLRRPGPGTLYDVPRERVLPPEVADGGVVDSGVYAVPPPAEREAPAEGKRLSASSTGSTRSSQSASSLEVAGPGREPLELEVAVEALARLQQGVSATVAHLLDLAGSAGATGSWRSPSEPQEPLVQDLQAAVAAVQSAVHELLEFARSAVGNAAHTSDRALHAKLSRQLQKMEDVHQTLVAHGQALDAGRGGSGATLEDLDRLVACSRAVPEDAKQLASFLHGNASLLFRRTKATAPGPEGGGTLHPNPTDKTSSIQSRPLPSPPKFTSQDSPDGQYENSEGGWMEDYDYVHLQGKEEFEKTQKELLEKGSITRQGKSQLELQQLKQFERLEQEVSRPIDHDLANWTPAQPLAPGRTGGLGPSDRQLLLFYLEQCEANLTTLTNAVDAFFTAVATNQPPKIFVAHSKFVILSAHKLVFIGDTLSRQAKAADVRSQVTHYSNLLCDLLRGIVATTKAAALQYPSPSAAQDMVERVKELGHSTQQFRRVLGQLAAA
T9 sequence (Q92889 whole entry): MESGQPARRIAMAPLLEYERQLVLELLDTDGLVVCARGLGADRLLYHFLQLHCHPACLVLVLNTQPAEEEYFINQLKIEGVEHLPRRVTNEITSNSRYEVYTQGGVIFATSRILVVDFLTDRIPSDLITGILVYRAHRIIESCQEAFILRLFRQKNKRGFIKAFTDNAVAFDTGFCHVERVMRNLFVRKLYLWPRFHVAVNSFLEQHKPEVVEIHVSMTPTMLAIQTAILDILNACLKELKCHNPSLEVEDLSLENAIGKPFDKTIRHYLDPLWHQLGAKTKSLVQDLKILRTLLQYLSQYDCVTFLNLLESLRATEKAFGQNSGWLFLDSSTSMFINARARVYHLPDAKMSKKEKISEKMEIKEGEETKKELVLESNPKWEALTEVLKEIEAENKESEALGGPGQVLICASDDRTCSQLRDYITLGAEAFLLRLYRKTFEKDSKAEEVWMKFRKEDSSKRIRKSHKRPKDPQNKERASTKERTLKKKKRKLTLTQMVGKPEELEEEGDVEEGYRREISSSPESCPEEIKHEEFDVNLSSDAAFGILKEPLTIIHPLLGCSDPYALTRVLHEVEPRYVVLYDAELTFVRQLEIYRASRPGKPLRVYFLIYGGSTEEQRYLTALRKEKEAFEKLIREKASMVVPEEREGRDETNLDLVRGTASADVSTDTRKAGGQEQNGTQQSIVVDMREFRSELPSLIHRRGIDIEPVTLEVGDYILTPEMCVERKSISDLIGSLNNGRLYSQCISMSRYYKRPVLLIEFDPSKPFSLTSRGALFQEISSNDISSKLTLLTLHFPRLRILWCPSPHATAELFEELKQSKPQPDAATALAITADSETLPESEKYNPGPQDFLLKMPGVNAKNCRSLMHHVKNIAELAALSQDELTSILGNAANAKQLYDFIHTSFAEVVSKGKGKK
T7 sequence (Q9UFN0 whole entry): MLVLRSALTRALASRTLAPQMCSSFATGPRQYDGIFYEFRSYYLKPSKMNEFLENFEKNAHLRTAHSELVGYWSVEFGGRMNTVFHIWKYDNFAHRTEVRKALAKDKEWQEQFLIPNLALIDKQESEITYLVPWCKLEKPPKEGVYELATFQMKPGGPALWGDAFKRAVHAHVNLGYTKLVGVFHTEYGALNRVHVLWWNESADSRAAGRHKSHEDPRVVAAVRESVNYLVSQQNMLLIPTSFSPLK
T11 sequence (O43823 whole entry): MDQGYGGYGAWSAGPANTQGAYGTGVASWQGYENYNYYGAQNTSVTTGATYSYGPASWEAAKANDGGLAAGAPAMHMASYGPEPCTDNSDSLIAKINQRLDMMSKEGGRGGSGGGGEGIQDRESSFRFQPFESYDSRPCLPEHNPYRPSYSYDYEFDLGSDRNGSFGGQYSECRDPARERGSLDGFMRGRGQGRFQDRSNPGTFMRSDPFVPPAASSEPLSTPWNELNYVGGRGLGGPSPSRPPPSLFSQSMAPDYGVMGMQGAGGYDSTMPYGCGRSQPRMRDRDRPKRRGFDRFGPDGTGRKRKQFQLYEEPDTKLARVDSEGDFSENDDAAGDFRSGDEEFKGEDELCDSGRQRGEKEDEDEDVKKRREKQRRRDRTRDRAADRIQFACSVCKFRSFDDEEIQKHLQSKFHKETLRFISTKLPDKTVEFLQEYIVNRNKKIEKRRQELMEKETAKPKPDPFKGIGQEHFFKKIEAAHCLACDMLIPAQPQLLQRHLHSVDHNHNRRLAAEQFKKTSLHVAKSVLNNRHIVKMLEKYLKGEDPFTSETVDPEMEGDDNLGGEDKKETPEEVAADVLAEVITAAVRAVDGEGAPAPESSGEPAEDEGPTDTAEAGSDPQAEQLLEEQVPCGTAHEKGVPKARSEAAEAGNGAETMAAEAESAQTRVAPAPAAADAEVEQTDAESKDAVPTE

**Q.** For `O=C(NC1CC1)c1ccc(S(=O)(=O)n2cncn2)cc1` [HHS-0101, 4-((1H-1,2,4-triazol-1-yl)sulfonyl)-N-cyclopropylbenzamide], which “liganded tyrosine site 196” value [1] is on record?
**A.** Its value is “HHS0101.Y|HHS0201.Y|HHS0401.Y (tyrosine sites that showed >80% reductions (SR >5) in probe labeling in cells treated with compounds (liganded sites))”.

**Q.** And the “liganded tyrosine site 183” value [2]?
**A.** Its value is “HHS0101.Y (tyrosine sites that showed >80% reductions (SR >5) in probe labeling in cells treated with compounds (liganded sites))”.

**Q.** And the “liganded tyrosine site 320” value [3]?
**A.** Its value is “HHS0101.Y (tyrosine sites that showed >80% reductions (SR >5) in probe labeling in cells treated with compounds (liganded sites))”.

**Q.** And the “liganded tyrosine site 145” value [4]?
**A.** Its value is “HHS0101.Y (tyrosine sites that showed >80% reductions (SR >5) in probe labeling in cells treated with compounds (liganded sites))”.

**Q.** With `O=C(NCC1CC1)c1ccc(S(=O)(=O)n2cncn2)cc1` [HHS-0201, 4-((1H-1,2,4-triazol-1-yl)sulfonyl)-N-(cyclopropylmethyl)benzamide] as the compound, how does the “liganded tyrosine site 864” value [5] read?
**A.** Its value is “HHS0201.Y (tyrosine sites that showed >80% reductions (SR >5) in probe labeling in cells treated with compounds (liganded sites))”.

**Q.** What about the “liganded tyrosine site 267” value [6] of the same compound?
**A.** The value was “HHS0201.Y (tyrosine sites that showed >80% reductions (SR >5) in probe labeling in cells treated with compounds (liganded sites))”.

**Q.** What about the “liganded tyrosine site 42” value [7] of the same compound?
**A.** Its value is “HHS0201.Y|HHS0301.Y|HHS0401.Y|HHS0701.Y (tyrosine sites that showed >80% reductions (SR >5) in probe labeling in cells treated with compounds (liganded sites))”.

**Q.** With `O=C(NC1CCCCC1)c1ccc(S(=O)(=O)n2cncn2)cc1` [HHS-0301, 4-((1H-1,2,4-triazol-1-yl)sulfonyl)-N-cyclohexylbenzamide] as the compound, how does the “liganded tyrosine site 359” value [8] read?
**A.** The value was “HHS0301.Y (tyrosine sites that showed >80% reductions (SR >5) in probe labeling in cells treated with compounds (liganded sites))”.

**Q.** What about the “liganded tyrosine site 344” value [9] of the same compound?
**A.** Its value is “HHS0301.Y|HHS0401.Y (tyrosine sites that showed >80% reductions (SR >5) in probe labeling in cells treated with compounds (liganded sites))”.

**Q.** What about the “liganded tyrosine site 2390” value [10] of the same compound?
**A.** The value was “HHS0301.Y (tyrosine sites that showed >80% reductions (SR >5) in probe labeling in cells treated with compounds (liganded sites))”.

**Q.** Which “liganded tyrosine site 436” value [11] does the source give for `O=C(NCc1ccccc1)c1ccc(S(=O)(=O)n2cncn2)cc1` [HHS-0401, 4-((1H-1,2,4-triazol-1-yl)sulfonyl)-N-benzylbenzamide] here?
**A.** Its value is “HHS0401.Y (tyrosine sites that showed >80% reductions (SR >5) in probe labeling in cells treated with compounds (liganded sites))”.

**Q.** And the “liganded tyrosine site 233” value [12]?
**A.** The value was “HHS0401.Y (tyrosine sites that showed >80% reductions (SR >5) in probe labeling in cells treated with compounds (liganded sites))”.

**Q.** And the “liganded tyrosine site 76” value [13]?
**A.** The value was “HHS0401.Y|HHS0701.Y (tyrosine sites that showed >80% reductions (SR >5) in probe labeling in cells treated with compounds (liganded sites))”.

**Q.** And the “liganded tyrosine site 148” value [14]?
**A.** The value was “HHS0401.Y (tyrosine sites that showed >80% reductions (SR >5) in probe labeling in cells treated with compounds (liganded sites))”.

**Q.** What about the “liganded tyrosine site 1836” value [15] of the same compound?
**A.** The value was “HHS0401.Y (tyrosine sites that showed >80% reductions (SR >5) in probe labeling in cells treated with compounds (liganded sites))”.

**Q.** And the “liganded tyrosine site 1424” value [16]?
**A.** The value was “HHS0401.Y|HHS0701.Y (tyrosine sites that showed >80% reductions (SR >5) in probe labeling in cells treated with compounds (liganded sites))”.

**Q.** Which results are given for `O=C(c1ccc(S(=O)(=O)n2cncn2)cc1)N1CCC(c2ccccc2)CC1` [HHS-0701, (4-((1H-1,2,4-triazol-1-yl)sulfonyl)phenyl)(4-phenylpiperidin-1-yl)methanone]?
**A.** liganded tyrosine site 124 [17]: HHS0701.Y (tyrosine sites that showed >80% reductions (SR >5) in probe labeling in cells treated with compounds (liganded sites)); liganded tyrosine site 163 [18]: HHS0701.Y (tyrosine sites that showed >80% reductions (SR >5) in probe labeling in cells treated with compounds (liganded sites))
